From US12465601B2, “Uses of phosphodiesterase inhibitors” (TRANSTHERA SCIENCES (NANJING), INC., priority 2019, dated 2025)

Legend:
[1] = test system: HEK293T cells double transfected with human PDE9A2 and natriuretic peptide protein receptor 1 (NPR1); experiment: Effect on cGMP content in transiently transfected HEK293T cells (ANF-stimulated, cGMP ELISA); type: cell-based; settings: ANF 1 μM; compound 0.12-30 μM; FIG. 1
Description: Cell name: Human embryonic kidney cell HEK293T
HEK293T cells were plated in a 6-well plate at 2×10^6 cells/well and cultured for 6 h to allow for adherence of cells.
The medium of each well was changed to 1.5 mL DMEM complete medium;
Non-transfected wells: An equal volume of DMEM complete medium (700 μL DMEM complete medium) was added to non-transfected wells.
The medium was aspirated from each well. The cells were washed once with PBS, and 250 μL of 0.5 M perchloric acid was added.
The cells were collected with a cell scraper, and transferred into a 1.5 mL centrifuge tube. After homogeneously mixing by vortex, the cells were centrifuged at 6000 g for 20 min at 4° C. […]
The plate was washed thoroughly 5 times, then 200 μL of Ellman's Reagent was added to each well. The plate was sealed, shaken in the dark, and color-developed for 60 min, and then detected for absorbance value at 412 nm.
Firstly, the non-specific binding (the reading of each well minus the reading of the NSB well) was subtracted, and then B/B0 was calculated, that is, the ratio of the binding of the sample or standard to the maximum binding, and converted according to the following formula, and then the obtained logit(B/B0) and lg (compound concentration) were subjected to linear regression analysis to obtain a standard curve. logit(B/B0)=ln[B/B0/(1−B/B0)] […]

[2] = test system: rats with heart failure; experiment: Heart failure models of rats induced by coronary artery ligation; type: in vivo, Sprague Dawley rats; settings: 30 mpk p.o bid, 28 days
Description: Sprague Dawley rats (SD rats), male, weight of about 220 g during modeling. Before operation, the animals were anesthetized by intraperitoneal injection of sodium pentobarbital injection, and atropine was injected intraperitoneally to eliminate phlegm. After the rat was anesthetized and fixed in supine position, a ventilator was used for assisted breathing, the chest was opened between the third and fourth ribs, and the left anterior descending coronary artery was ligated with a 5-0 suture needle. After the ligation was completed, the chest cavity was closed, the skin was sutured, and the rats were put in an insulation blanket for recovery. The same operation was performed on the sham group, except for the silk ligature operation. After the operation, the rats were subjected to intramuscular injection of meloxicam for pain relief, intraperitoneal injection of gentamicin sulfate injection for eliminating infection, and intraperitoneal injection of lidocaine for preventing ventricular fibrillation. One week after the animals recovered from surgery, the model rats were divided into a model group and a therapeutic drug group (compound 102 group), and the vehicle and compound 102 were administered by gavage, respectively, twice a day for four consecutive weeks. During the experiment, the living status of the animals were observed and abnormal conditions were recorded to evaluate the safety of the compound; and administration was performed for 28 days. The animals were anesthetized by intraperitoneal injection of sodium pentobarbital on the second day after the last administration, and echocardiographic detection and hemodynamic detection were performed to evaluate the effect of the compound on cardiac systolic function and ventricular volume. After the end of the experiment, end point treatment was performed, and the heart was taken for material collection for subsequent related researches on cGMP and protein expression. One week after the animals recovered from surgery, the rats were anesthetized with isoflurane, and a small animal ultrasound imaging system Vevo was used to examine the left ventricular function of the model rats. The model was considered successful if the LVEF % was reduced by 30%. Except for the sham group, the animals were randomly divided into 2 groups according to LVEF % and body weight. The number of animals in each group and the method of administration were as follows: [table] At the end of the experiment, rats were sacrificed and the infarct heart tissue was fixed with 4% formaldehyde, dehydrated, embedded in paraffin, and sectioned. Collagen deposition status was observed under a microscope by means of using Sirius red staining, and the Leica aperio digital slice scanning system was used for scanning analysis. The main evaluation indexes are LVEF % (left ventricular ejection fraction), FS (left ventricular fractional shortening), ESV (left ventricular end-systolic volume), EDV (left ventricular end-diastolic volume), and heart rate (HR). At the end of the experiment, the proportion of Sirius red in peri-infarction zone was quantified to evaluate the collagen deposition status. The data was represented by Mean±S.E.M, and Graphpad Prism 5.0 was used for statistical mapping. Statistical analysis was performed with T-test.

In the case of `CCc1cc2c(N3CCC(C)(OC)CC3)c(C#N)c(=O)[nH]c2cn1` [Compound 102, 6-ethyl-4-(4-methoxy-4-methylpiperidin-1-yl)-2-oxo-1,2-dihydro-1,7-diazanaphthalene-3-carbonitrile], the “cGMP content in HEK293T cells” value [1] is reported as “Up-regulation effect”, the “Percentage (%) of collagen deposition in the peri-infarction zone” value ([2]; Mean ± S.E.M, Sirius red staining, P<0.001 vs model group) is reported as 21.5 ± 1.234 % and the “collagen deposition in the peri-infarction zone (in words)” value ([2]; compared with model group P<0.001) is reported as “significantly reduce”. For the same compound, the “LVEF (left ventricular ejection fraction)” value ([2]; vs model group P<0.001, FIG. 3) was “improve the reduction”, the “FS (left ventricular fractional shortening)” value ([2]; vs model group P<0.001, FIG. 4) was “improve the reduction” and the “ESV (left ventricular end-systolic volume)” value ([2]; vs model group P<0.01, FIG. 5) was “significant improvement effect”. For the same compound, the “EDV (left ventricular end-diastolic volume)” value ([2]; vs model group P<0.05, FIG. 6) was “significant improvement effect”.
